Measurements from patent US8486996B2, “Aroylfuranes and aroylthiophenes” (Basilea Pharmaceutica AG, priority 2006, dated 2013).
Read-outs that look alike come from different tables or passages of the source.

Tests used:
Assay type in all cases: cell-based
tumor cells [1] = experiment: Hoechst 33342 nuclear staining (48 h read-out)
Procedure: (§1) A) Hoechst 33342 Nuclear Staining
(§2) This assay is performed in 96 well tissue culture plates. Appropriate number of cells (adherent cells: 3-5*10^3, suspension cells: 8-10*10^3) are being seeded out in 80 μl complete medium. Adherent cells are incubated for 24 h for proper spreading out before addition of test compounds while suspension cells are immediately treated with test compounds after seeding out. The test compounds are added in 20 μl complete medium containing max 5% DMSO. The final compound concentrations in the assays are in the range of 0.001 μM-10 μM. After 24 h or 48 h incubation at culture conditions, 10 μl medium containing Hoechst 33342 dye (Sigma B-2261) at 2-5 μg/ml are added to each well. The assay plates are then further incubated for 30 minutes and subsequently analyzed with a standard inverted fluorescence microscope.
(§3) The readout allows the determination of the fraction of apoptotic nuclei as well as other morphological criteria specific for apoptosis as a function of the treatment. The scores A, B, C and D are explained at the end of the Table.

[2] = Hoechst 33342 nuclear staining (48 h read-out)
Procedure: as §1, §2, §3

tumor cells [3] = experiment: MTS proliferation assay (72 h read-out)
Procedure: B) MTS Proliferation Assay
The assay is performed in 96 well tissue culture plates. The cells (range: 1.5*10^3-10^4) are seeded out in 80 μl complete medium 24 h prior to compound treatment. The test compounds are added in 20 μl complete medium containing max 5% DMSO. The final compound concentrations in the assays are in the range of 0.001 μM-10 μM. The assay plates are incubated for 72 h at culture conditions. The MTS reagent is prepared according to the manufacturer's protocol (Promega G1111). 20 μl MTS reagent are added to each well; the assay plates are quickly spun and incubated for another 3 h at culture conditions. Subsequently, the plates are shortly shaked and absorption measured with a microplate-reader at 492 nm. The scores A, B, C and D are explained at the end of the Table.

tumor cells [4] = experiment: Mitochondrial membrane potential, JC-1 (read-out 48 h); conditions: JC-1, 48 h
Procedure: D) Mitochondrial Membrane Potential
as §2, with “The final compound concentrations in the assays are in the range of 0.001 μM-10 μM.” left out, “JC-1 (Molecular Probes, T-3168)” for “Hoechst 33342 dye (Sigma B-2261)”, “microscope by using the FITC and TRITC filters.” for “microscope.”
The readout allows the determination of the fraction of cells which show a dissipation of the mitochondrial membrane potential strongly indicating an apoptotic cell death as a function of the treatment. The scores A, B, C and D are explained at the end of the Table.

[5] = Homo sapiens, HeLa cells, read-out: Hoechst 33342 nuclear staining EC50, HeLa
[6] = Homo sapiens, Jurkat cells, read-out: Hoechst 33342 nuclear staining EC50, Jurkat
[7] = Homo sapiens, MRC5 cells, read-out: Hoechst 33342 nuclear staining EC50, MRC5
[8] = Homo sapiens, HT-1080, HT1080 cells, read-out: MTS proliferation assay IC50, HT1080
[9] = Homo sapiens, HeLa cells, read-out: MTS proliferation assay IC50, HeLa
[10] = Homo sapiens, Jurkat cells, read-out: MTS proliferation assay IC50, Jurkat
[11] = Jily cells, read-out: MTS proliferation assay IC50, Jily
[12] = Homo sapiens, HeLa cells, read-out: Mitochondrial membrane potential (read-out 48 h) HeLa
[13] = Homo sapiens, Jurkat cells, read-out: Mitochondrial membrane potential (read-out 48 h) Jurkat
[14] = Homo sapiens, MCF7 cells, read-out: Mitochondrial membrane potential (read-out 48 h) MCF7
[15] = Jily cells, read-out: Mitochondrial membrane potential (read-out 48 h) Jily
[16] = HeLa cells, read-out: Hoechst 33342 nuclear staining EC50, HeLa
[17] = Jurkat cells, read-out: Hoechst 33342 nuclear staining EC50, Jurkat
[18] = MRC5 cells, read-out: Hoechst 33342 nuclear staining EC50, MRC5
[19] = HT1080 cells, read-out: MTS proliferation assay IC50, HT1080
[20] = HeLa cells, read-out: MTS proliferation assay IC50, HeLa
[21] = Jurkat cells, read-out: MTS proliferation assay IC50, Jurkat
[22] = HeLa cells, read-out: Mitochondrial membrane potential (read-out 48 h) HeLa
[23] = Jurkat cells, read-out: Mitochondrial membrane potential (read-out 48 h) Jurkat
[24] = MCF7 cells, read-out: Mitochondrial membrane potential (read-out 48 h) MCF7

Row | Compound | IC50 (tumor cells [3]; [11]) [µM] | EC50 (tumor cells [4]; [15]) [µM] | EC50 (tumor cells [1]; [16]) [µM] | EC50 (tumor cells [1]; [17]) [µM] | IC50 (tumor cells [3]; [19]) [µM] | IC50 (tumor cells [3]; [20]) [µM] | IC50 (tumor cells [3]; [21]) [µM] | EC50 (tumor cells [4]; [22]) [µM] | EC50 (tumor cells [4]; [23]) [µM] | EC50 (tumor cells [4]; [24]) [µM] | EC50 [2, 18] [µM] | other results
1 | CCOc1ccc(F)cc1C(=O)c1sc2nc(C)c(C)cc2c1N [Example 118, 5,6-Dimethyl-3-amino-2-(2′-ethoxy-5′-fluorobenzoyl)-thieno[2,3-b]pyridine] | 0.01 to 0.1 | 0.01 to 0.1 | – | – | – | – | – | – | – | – | – | EC50 (tumor cells [1]; [5]): 0.01 to 0.1 µM; EC50 (tumor cells [1]; [6]): 0.01 to 0.1 µM; EC50 [2, 7]: 0.01 to 0.1 µM; IC50 (tumor cells [3]; [8]): 0.01 to 0.1 µM; IC50 (tumor cells [3]; [9]): 0.01 to 0.1 µM; IC50 (tumor cells [3]; [10]): 0.01 to 0.1 µM; EC50 (tumor cells [4]; [12]): 0.1 to 1 µM; EC50 (tumor cells [4]; [13]): 0.01 to 0.1 µM; EC50 (tumor cells [4]; [14]): > 1 µM
2 | Cc1cc2c(N)c(C(=O)c3cc(F)ccc3N3CCOCC3)sc2nc1C [Example 119, 5,6-Dimethyl-3-amino-2-(2′-N-morpholino-5′-fluorobenzoyl)-thieno[2,3-b]pyridin] | 0.01 to 0.1 | 0.1 to 1 | – | – | – | – | – | – | – | – | – | EC50 (tumor cells [1]; [5]): 0.1 to 1 µM; EC50 (tumor cells [1]; [6]): 0.01 to 0.1 µM; EC50 [2, 7]: 0.01 to 0.1 µM; IC50 (tumor cells [3]; [8]): 0.01 to 0.1 µM; IC50 (tumor cells [3]; [9]): 0.1 to 1 µM; IC50 (tumor cells [3]; [10]): 0.01 to 0.1 µM; EC50 (tumor cells [4]; [12]): > 1 µM; EC50 (tumor cells [4]; [13]): 0.1 to 1 µM; EC50 (tumor cells [4]; [14]): > 1 µM
3 | CCOc1ccc(F)cc1C(=O)c1sc2ncc(C#N)cc2c1N [Example 120, 5-Cyano-3-amino-2-(2′-ethoxy-5′-fluorobenzoyl)-thieno[2,3-b]pyridine] | 0.1 to 1 | 0.1 to 1 | – | – | – | – | – | – | – | – | – | EC50 (tumor cells [1]; [5]): > 1 µM; EC50 (tumor cells [1]; [6]): 0.1 to 1 µM; EC50 [2, 7]: 0.1 to 1 µM; IC50 (tumor cells [3]; [8]): 0.1 to 1 µM; IC50 (tumor cells [3]; [9]): 0.1 to 1 µM; IC50 (tumor cells [3]; [10]): 0.1 to 1 µM; EC50 (tumor cells [4]; [12]): > 1 µM; EC50 (tumor cells [4]; [13]): 0.1 to 1 µM; EC50 (tumor cells [4]; [14]): > 1 µM
4 | CCCOc1ccc(F)cc1C(=O)c1sc2ncc([N+](=O)[O-])cc2c1N [Example 127] | > 1 | > 1 | > 1 | > 1 | > 1 | > 1 | > 1 | > 1 | > 1 | > 1 | > 1 | –
5 | CCCOc1ccc(F)cc1C(=O)c1sc2ncc(N)cc2c1N [Example 128] | 0.1 to 1 | > 1 | 0.1 to 1 | 0.1 to 1 | 0.1 to 1 | > 1 | 0.1 to 1 | > 1 | 0.1 to 1 | > 1 | 0.1 to 1 | EC50 ([2]; PBL, read-out: Hoechst 33342 nuclear staining EC50, PBL): > 1 µM
6 | Nc1c(C(=O)c2cc(F)ccc2N2CCOCC2)sc2ncc([N+](=O)[O-])cc12 [Example 129] | > 1 | > 1 | > 1 | > 1 | > 1 | > 1 | > 1 | > 1 | > 1 | > 1 | > 1 | –
7 | Nc1cnc2sc(C(=O)c3cc(F)ccc3N3CCOCC3)c(N)c2c1 [Example 130] | 0.01 to 0.1 | 0.1 to 1 | 0.1 to 1 | 0.1 to 1 | 0.1 to 1 | 0.1 to 1 | 0.01 to 0.1 | 0.1 to 1 | 0.1 to 1 | > 1 | 0.1 to 1 | –
8 | CCCOc1ccccc1C(=O)c1sc2nc(C)c(C)cc2c1N [Example 133] | 0.01 to 0.1 | 0.01 to 0.1 | 0.01 to 0.1 | 0.01 to 0.1 | 0.01 to 0.1 | 0.01 to 0.1 | 0.01 to 0.1 | 0.01 to 0.1 | 0.01 to 0.1 | > 1 | 0.01 to 0.1 | –
9 | Cc1cc2c(N)c(C(=O)c3ccccc3N3CCOCC3)sc2nc1C [Example 134] | 0.01 to 0.1 | 0.01 to 0.1 | 0.1 to 1 | 0.01 to 0.1 | 0.01 to 0.1 | 0.1 to 1 | 0.01 to 0.1 | 0.01 to 0.1 | 0.01 to 0.1 | > 1 | 0.1 to 1 | –

Second part, led by results:

Row | IC50 (tumor cells [3]; [11]) [µM] | EC50 (tumor cells [4]; [15]) [µM] | EC50 (tumor cells [1]; [16]) [µM] | EC50 (tumor cells [1]; [17]) [µM] | IC50 (tumor cells [3]; [19]) [µM] | IC50 (tumor cells [3]; [20]) [µM] | IC50 (tumor cells [3]; [21]) [µM] | EC50 (tumor cells [4]; [22]) [µM] | EC50 (tumor cells [4]; [23]) [µM] | EC50 (tumor cells [4]; [24]) [µM] | Compound | EC50 [2, 18] [µM] | other results
10 | > 1 | > 1 | > 1 | > 1 | > 1 | > 1 | > 1 | > 1 | > 1 | > 1 | Nc1c(C(=O)c2ccccc2N2CCCCC2)sc2ncccc12 [Example 121] | > 1 | –
11 | > 1 | > 1 | > 1 | > 1 | > 1 | > 1 | > 1 | > 1 | > 1 | > 1 | Nc1c(C(=O)c2ccccc2N2CCOCC2)sc2ncccc12 [Example 122] | > 1 | –
12 | > 1 | > 1 | > 1 | > 1 | > 1 | > 1 | > 1 | > 1 | > 1 | > 1 | Nc1c(C(=O)c2ccccc2N2CC=CCC2)sc2ncccc12 [Example 123] | > 1 | –
13 | > 1 | > 1 | > 1 | > 1 | > 1 | > 1 | > 1 | > 1 | > 1 | > 1 | Nc1c(C(=O)c2cc(F)ccc2N2CCCCC2)sc2ncccc12 [Example 124] | > 1 | –
14 | 0.1 to 1 | 0.1 to 1 | > 1 | > 1 | > 1 | > 1 | 0.1 to 1 | > 1 | 0.1 to 1 | > 1 | Nc1c(C(=O)c2cc(F)ccc2N2CCOCC2)sc2ncccc12 [Example 125] | > 1 | –
15 | 0.1 to 1 | 0.1 to 1 | > 1 | > 1 | 0.1 to 1 | > 1 | 0.1 to 1 | > 1 | 0.1 to 1 | > 1 | Nc1c(C(=O)c2cc(F)ccc2N2CC=CCC2)sc2ncccc12 [Example 126] | > 1 | –
16 | > 1 | > 1 | > 1 | > 1 | > 1 | > 1 | > 1 | > 1 | > 1 | > 1 | Nc1c(C(=O)c2ccccc2N2CCOCC2)sc2ncc([N+](=O)[O-])cc12 [Example 131] | > 1 | –
17 | 0.1 to 1 | > 1 | > 1 | 0.1 to 1 | > 1 | > 1 | 0.1 to 1 | > 1 | > 1 | > 1 | Nc1cnc2sc(C(=O)c3ccccc3N3CCOCC3)c(N)c2c1 [Example 132] | > 1 | –
18 | 0.01 to 0.1 | 0.01 to 0.1 | 0.1 to 1 | 0.01 to 0.1 | 0.01 to 0.1 | 0.1 to 1 | 0.01 to 0.1 | > 1 | 0.01 to 0.1 | > 1 | Cc1cc2c(N)c(C(=O)c3ccccc3N3CC=CCC3)sc2nc1C [Example 135] | 0.1 to 1 | –
